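Tested at 5 concentrations; 48 h exposure; 96-well plates; endpoints linearly interpolated, else capped at highest concentration. At the TGI there is no net growth.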
Tests used:
Assay in all cases: DTP human tumour cell line panel, 48 h
786-0 renal = tested on: 786-0 renal
A549 NSCLC = tested on: A549 NSCLC
HCT-15 colon = tested on: HCT-15 colon
HOP-62 NSCLC = tested on: HOP-62 NSCLC
HS 578T breast = tested on: HS 578T breast
HT29 colon = tested on: HT29 colon
MCF7 breast = tested on: MCF7 breast
MDA-MB-231 breast = tested on: MDA-MB-231 breast
MOLT-4 leukemia = tested on: MOLT-4 leukemia
NCI-H226 lung = tested on: NCI-H226 lung
NCI-H23 lung = tested on: NCI-H23 lung
NCI-H522 lung = tested on: NCI-H522 lung
OVCAR-5 ovarian = tested on: OVCAR-5 ovarian
PC-3 prostate = tested on: PC-3 prostate
SF-295 CNS = tested on: SF-295 CNS
SF-539 CNS = tested on: SF-539 CNS
SK-MEL-2 melanoma = tested on: SK-MEL-2 melanoma
SK-MEL-28 melanoma = tested on: SK-MEL-28 melanoma
UO-31 renal = tested on: UO-31 renal
LOX IMVI melanoma = tested on: LOX IMVI melanoma

Structure (SMILES) | TGI (786-0 renal) [µM] | TGI (A549 NSCLC) [µM] | TGI (HCT-15 colon) [µM] | TGI (HOP-62 NSCLC) [µM] | TGI (HS 578T breast) [µM] | TGI (HT29 colon) [µM] | TGI (MCF7 breast) [µM] | TGI (MDA-MB-231 breast) [µM] | TGI (MOLT-4 leukemia) [µM] | TGI (NCI-H226 lung) [µM] | TGI (NCI-H23 lung) [µM] | TGI (NCI-H522 lung) [µM] | TGI (OVCAR-5 ovarian) [µM] | TGI (PC-3 prostate) [µM] | TGI (SF-295 CNS) [µM] | TGI (SF-539 CNS) [µM] | TGI (SK-MEL-2 melanoma) [µM] | TGI (SK-MEL-28 melanoma) [µM] | TGI (UO-31 renal) [µM] | TGI (LOX IMVI melanoma) [µM]
CN(C)C=Nc1c(Br)cc(Br)c2nonc12 | > 100 | > 100 | > 100 | > 100 | > 100 | > 100 | > 100 | > 100 | > 100 | > 100 | > 100 | > 100 | > 100 | > 100 | > 100 | > 100 | > 100 | > 100 | > 100 | 
CCCCCCCCCCCCCCC[C@@H](O)C[N+](C)(C)CCO | 3.07 | 29.1 | 14 | > 100 | 7.53 | 4.62 | 33.6 | 7.85 | > 24.5 | 14 | 10.7 | 4.35 | 11.4 |  | 10.1 | 21.8 | 44.3 | 52.5 | 35.6 | 
O=c1c2ccccc2n2n1Cc1ccccc1C2 | > 100 | > 100 | > 100 | > 100 | > 100 | > 100 | > 100 | > 100 | > 100 | > 100 | > 100 | > 100 |  | > 100 | > 100 | > 100 |  | > 100 | > 100 | > 100
Cc1ccc(-c2n[nH]c(=O)n2N2C(=O)C=CC2=O)cc1 | > 100 | > 100 | > 100 | > 100 | > 100 | > 100 | > 100 | > 100 | > 100 | > 100 | > 100 | > 100 | > 100 | > 100 | > 100 | > 100 | > 100 |  |  | 
O=C1NCC2(CCNCC2)N1 | > 100 | > 100 | > 100 | > 100 | > 100 | > 100 | > 100 | > 100 | > 100 | > 100 | > 100 |  | > 100 |  | > 100 | > 100 |  | > 100 | > 100 | > 100
O=C(Nn1c(-c2ccccc2)nc2ccccc2c1=O)c1ccc(O)cc1 | > 100 | > 100 | > 100 | > 100 | > 100 | > 100 | > 100 | > 100 | > 100 | > 100 | > 100 | > 100 | > 100 | > 100 | > 100 | > 100 |  | > 100 | > 100 | 
N#Cc1nc(C2SCCCS2)oc1N | > 100 | > 100 | > 100 | > 100 | > 100 | > 100 | > 100 | > 100 | > 100 |  |  |  | > 100 | > 100 |  |  | > 100 | > 100 |  | > 100
CC(=O)OC(C#N)CC(C)(C)/[N+]([O-])=[N+](\[O-])C(C)(C)CC(C#N)OC(C)=O (centres undefined) | 24.7 | > 100 | 25.5 | 36.2 | 55.2 | 65.8 | > 100 | 36.1 | 26.3 | 55.3 | 34 | 23.9 | 95.4 | 37.9 | 80.8 |  | > 100 | 96.4 | 63.6 | 28.8
COCN1C(=O)[C@@H]2CCCN2C(=O)c2cc(Cl)ccc21 | > 100 | > 100 | > 100 | > 100 | > 100 | > 100 | > 100 | > 100 | > 100 |  | > 100 | > 100 | > 100 | > 100 | > 100 |  | > 100 | > 100 | > 100 | > 100
COc1ccc2[nH]cc(CN3CCC(CO)(c4ccccc4)CC3)c2c1 | 28.6 | 57.3 | > 100 | 58.8 | 70.9 | > 100 | 37.9 | 80.9 | 56.9 | > 100 | > 100 | 35.5 | > 100 | > 100 | 39.8 |  | 55.3 | 33.3 | 72.2 | 37
COC(=O)C(CCSc1ccccc1)C(=O)OC | > 100 | > 100 | > 100 | > 100 | > 100 | > 100 | > 100 | > 100 | > 100 | > 100 | > 100 | > 100 | > 100 | > 100 | > 100 | > 100 | > 100 | > 100 | > 100 | 
CC1=C2c3ccccc3N(S(=O)(=O)c3ccccc3)[C@H]2[C@H](C(=O)N2C3CC4CC[C@@]3(CS2(=O)=O)C4(C)C)CC1 (some centres undefined) | > 100 | > 100 | > 100 | > 100 | > 100 | > 100 | 75.4 | > 100 | 75.9 | > 100 | > 100 | 42.6 | > 100 | > 100 | > 100 | > 100 |  | > 100 | 54 | > 100
CCN(CC)CCOCC1CCCN2CCCCC12 (centres undefined) | > 100 | > 100 | > 100 | > 100 | > 100 | > 100 | > 100 | > 100 | > 100 | > 100 | > 100 |  | > 100 | > 100 | > 100 | > 100 | > 100 | > 100 | > 100 | > 100
CC(C)N(C(=O)c1ccc(NCc2cc(O)ccc2O)cc1)C(C)C | 26.6 | > 100 | 33.6 | 69.4 | 78.7 | 35 | 87.8 | 32 | > 100 | 45.3 | 42.2 |  | 43.8 | 52.3 | 46 | 34 | 57.9 | 45.9 | 21.3 | 30.4
Nc1ccc(-c2nc3ccccc3s2)cc1F | 50.2 | > 100 | > 100 | > 100 | > 100 | > 100 | > 100 | 79 | 31.9 |  | > 100 | > 100 |  | > 100 | 94 |  | 43.4 | > 100 | > 100 | > 100
Cc1ccc(Cc2nn(C)c(=O)n2-n2cccc2)cc1 | > 100 | > 100 | > 100 | > 100 | > 100 | > 100 | > 100 | > 100 | > 100 | > 100 |  | > 100 | > 100 | > 100 | > 100 |  | > 100 | > 100 | > 100 | > 100
NS(=O)(=O)c1ccc(N=Nc2nc3[nH]cnc(=S)c3[nH]2)cc1 | > 100 | > 89.6 | > 50.9 | > 51.1 | > 87 | > 68.2 | > 100 | > 25.3 | 4.19 | > 76.5 | 14.2 | 10.2 | > 60.2 | > 41.4 | > 64.7 | 34.4 |  | > 100 | > 43.8 | 15.4
O=C(/C=C/c1cccs1)c1ccc(Cl)s1 | > 10 | > 100 | 35.2 | > 100 | > 100 | > 10 | > 100 | > 100 | 52.3 | 85.1 | 51.2 |  | > 100 | > 100 | > 100 | > 100 | > 100 | 59.3 | 38.6 | 
O=C1c2cscc2C(=O)c2c(OCc3ccccc3)ccc(OCc3ccccc3)c21 | > 100 | > 100 |  | > 100 | > 100 | > 100 | > 100 | > 100 | > 100 | > 100 | > 100 | > 100 | > 100 | > 100 | > 100 | > 100 |  | > 100 | > 100 | > 100
Cc1cn(C2CC(N=[N+]=[N-])C(C(=O)O)O2)c(=O)[nH]c1=O (centres undefined) | > 100 | > 100 | > 100 | > 100 | > 100 | > 100 | > 100 | > 100 | > 100 | > 100 | > 100 | > 100 | > 100 | > 100 |  | > 100 | > 100 |  | > 100 | 
O=C1CCCCCCCCCCC1CN(Cc1ccccc1)Cc1ccccc1 (centres undefined) | > 100 | > 100 | > 100 | > 100 | > 100 |  | 68.1 | > 100 | 62.5 | > 100 | > 100 | > 100 | > 100 | > 100 | > 100 | > 100 |  | > 100 | > 100 | 69.4
Cc1cccc(Nc2nc(NNC(=O)Cc3ccccc3)nc(NNC(=O)c3ccncc3)n2)c1 | > 10 | > 10 | > 10 | > 10 | > 10 | > 10 | > 10 | > 10 | > 10 | > 10 | > 10 | > 10 |  | > 10 | > 10 | > 10 |  | > 10 | > 10 | > 10
COc1cc2c(cc1OC)CN1CCc3ccccc3CC1C2 (centres undefined) | > 100 | > 100 | > 100 | > 100 | > 100 | > 100 | > 100 | > 100 | > 100 | > 100 | > 100 |  | > 100 | > 100 | > 100 | > 100 | > 100 | > 100 | > 100 | > 100
COc1ccc(N2C(=O)C3c4[nH]c5cc(Cl)ccc5c4C4CCC(C(C)(C)C)CC4C3C2=O)cc1 (centres undefined) | > 100 | > 100 | > 100 | > 100 | > 100 | > 100 | > 100 | > 100 | > 100 | > 100 | > 100 | > 100 |  | > 100 | > 100 | > 100 |  | > 100 | > 100 | 
CCCCC1=CC1(C#N)[N+](=O)[O-] (centres undefined) | > 100 | > 100 | > 100 | > 100 | > 100 | > 100 | > 100 | > 100 | 67.5 | > 100 | > 100 | > 100 | > 100 | > 100 | > 100 | > 100 |  | > 100 | > 100 | > 100
COC(=O)c1cn(CCCCO)nn1 | > 100 | > 100 | > 100 | > 100 | > 100 | > 100 | > 100 | > 100 | > 100 | > 100 | > 100 |  |  | > 100 | > 100 | > 100 | > 100 | > 100 | > 100 | > 100
